Laboratory results published in EP1557429A1, “Site-directed coupling of proteins” (Vectron Therapeutics AG, priority 2004, dated 2005).

Test system: A431 cells
Test: Binding of FITC-labeled EGFm1 to A431 cells, flow cytometry
Assay type: cell-based
Method: • Fig. 1: Schematic representation of the strategy to isolate side-chain deaminated ligands (A) or side-chain decarboxylated ligands (B). Randomization in approach A is performed by using sets of amino acids (X) devoid of lysines or lysines and arginines. Randomization in approach B is performed by using sets of amino acids (X) devoid of aspartic acids (Asp) and glutamic acids (Glu). • Fig. 2: Schematic representation of the strategy of side-chain elimination/addition (A) or side-chain group reduction (B), both examplified for elimination or reduction of cysteine residues. In these examples randomization is performed by using sets of amino acids (X) devoid of cysteines (Cys). Both approaches can be applied equally for any other amino acid residues. • Fig. 3: Amino acid sequences of EGF of various species. The positions of lysine and arginine residues is highlighted by grey boxes. • Fig. 4: (A) IMAC purification of recombinant HisEGFm1 from bacterial periplasm. Eluted fractions were analyzed on a 20% SDS-Tricine gel (HisEGFm1 is indicated by an arrowhead). Recombinant human EGF was included as control. (B) Size exclusion chromatography of purified EGFwt and HisEGFm1 on a superose 12 column. The positions of BSA (67 kDa), Ovalbumin (43 kDa) and Myoglobin (17 kDa) are indicated by arrows. (C) Competition of binding of fdEGF to A431 by EGFwt or HisEGFm1. • Fig. 5: Binding of FITC-labeled EGFm1 to A431. A) FITC-labeled HisEGFm1 was incubated with A431 at varying concentrations and binding was analyzed by flow cytometry (0, cells without EGFm1; 1, 17 ng/ml; 2 50 ng/ml; 3, 170 ng/ml). B) Competition of FITC-labeled EGFm1 at 170 ng/ml without (1) or with (2) excess amounts of unlabelled EGFwt. C) Control experiments with BSA. • Fig. 6: (A) Binding of EGFm1 liposomes to A431 cells.
EGFwt or EGFm1 (50 µg) were diluted to a conc. of 500 µg/ml and the pH was adjusted to 9.0 with carbonate buffer pH 9.5. FITC was added at a 10-fold molar excess and incubated overnight at 4°C. […] Fluorescence intensity was determined using a fluorescence spectrophotometer (Victor^2; Wallac, Freiburg, Germany). […]

For “Fluorescein-labeled EGFm1: EGFm1 labeled with fluorescein-isothiocyanate at the N-terminal amino group (NSDSECPLSHDGYCLHDGVCMYIEALDQYACNCVVGYIGERCQYSDLSWWELS; not fully specified; left off: small tags and cut ends)”, the “competition of binding to A431” value (excess amounts of unlabeled EGFwt, BSA as control) was “could be competed with excess amounts of unlabeled EGFwt but not with BSA”, the “binding to A431 reached saturation at” value (fluorescein-labeled protein, flow cytometry) was “approximately 50 ng/ml” and the “binding to A431 cells” value (fluorescein-labeled protein, varying concentrations) was “strong and concentration-dependent binding”.
